# Test results reported in ChEMBL document CHEMBL5050844 (2019).
# Key:
# [1] = Induction of anti-CD3/CD28 antibodies-stimulated human T cell activation at 1 uM assessed fold increase in IL-2 secretion measured by ELISA assay; format: functional, T cell line
# [2] = Induction of anti-CD3 antibodies-stimulated human T cell activation at 1 uM assessed fold increase in IL-2 secretion measured by ELISA assay; format: functional, T cell line; also: reference of the scale not given here
# [3] = Induction of anti-CD3/CD28 antibodies-stimulated human T cell activation at 4 uM assessed fold increase in CD25 expression measured by ELISA assay; format: functional, T cell line
# [4] = Induction of anti-CD3/CD28 antibodies-stimulated human CD8+ T cell activation at 10 uM assessed fold increase in CD69 expression measured by flow cytometry analysis; format: functional, T cell line
# [5] = Induction of anti-CD3/CD28 antibodies-stimulated human CD8+ T cell activation at 10 uM assessed fold increase in cell proliferation measured by flow cytometry analysis; format: functional, T cell line
# [6] = Induction of anti-CD3/CD28 antibodies-stimulated human CD8+ T cell activation at 1.11 uM assessed fold increase in cell proliferation measured by flow cytometry analysis; format: functional, T cell line
# [7] = Induction of anti-CD3/CD28 antibodies-stimulated human T cell activation at 1.11 uM assessed fold increase in GM-CSF secretion measured by ELISA assay; format: functional, T cell line
# [8] = Induction of anti-CD3 antibodies-stimulated human T cell activation at 1.11 uM assessed fold increase in GM-CSF secretion measured by ELISA assay; format: functional, T cell line; also: reference of the scale not given here
# [9] = Induction of anti-CD3 antibodies-stimulated human T cell activation at 10 uM assessed fold increase in TNF-alpha secretion measured by ELISA assay; format: functional, T cell line; also: reference of the scale not given here
# [10] = Induction of allogenic human T cell activation at 3 uM assessed fold increase in cell proliferation; format: functional, T cell line
# [11] = Induction of anti-CD3 antibodies-stimulated human exhausted T cell activation assessed fold increase in IFN-gamma secretion measured by ELISA assay; format: functional, T cell line; also: reference of the scale not given here
# [12] = Induction of anti-CD3 antibodies-stimulated human exhausted CD4+ T cell activation assessed fold increase in CTLA4 expression measured by flow cytometry analysis; format: functional, T cell line; also: reference of the scale not given here
# [13] = Induction of anti-CD3/CD28 antibodies-stimulated human anergic T cell activation at 1.11 uM assessed fold increase in IFN-gamma secretion measured by ELISA assay; format: functional, T cell line
# [14] = Induction of anti-CD3 antibodies-stimulated human CD4+ T cell activation in immunocompetent mouse assessed fold increase in CD25 expression at 90 mg/kg, ip administered twice a day; format: functional; also: reference of the scale not given here
# [15] = Induction of anti-CD3 antibodies-stimulated human CD8+ T cell activation in immunocompetent mouse assessed fold increase in CD25 expression at 90 mg/kg, ip administered thrice a day; format: functional; also: reference of the scale not given here
# [16] = Induction of activation of human CD56+ CD3- NK cells co-cultured with human K562 cells in 5:1 ratio and assessed as increase in IFN-gamma secretion at 10 uM measured by ELISA assay; format: functional, Natural killer cell
# [17] = Induction of activation of human CD56+ CD3- NK cells co-cultured with human K562 cells in 5:1 ratio and assessed as increase in IFN-gamma secretion at 1 uM measured by ELISA assay; format: functional, Natural killer cell
# [18] = Induction of activation of human CD56+ CD3- NK cells co-cultured with human K562 cells in 1:1 ratio and assessed as increase in IFN-gamma secretion at 1 uM measured by ELISA assay; format: functional, Natural killer cell
# [19] = Induction of activation of human CD56+ CD3- NK cells co-cultured with human K562 cells in 5:1 ratio and assessed as increase in TNF-alpha secretion at 10 uM measured by ELISA assay; format: functional, Natural killer cell
# [20] = Induction of activation of human CD56+ CD3- NK cells co-cultured with human K562 cells in 5:1 ratio and assessed as increase in TNF-alpha secretion at 1 uM measured by ELISA assay; format: functional, Natural killer cell
# [21] = Induction of activation of human CD56+ CD3- NK cells co-cultured with human K562 cells in 1:1 ratio and assessed as increase in TNF-alpha secretion at 1 uM measured by ELISA assay; format: functional, Natural killer cell
# [22] = Induction of activation of human CD56+ CD3- NK cells co-cultured with human K562 cells in 5:1 ratio and assessed as increase in MIP1beta secretion at 10 uM measured by ELISA assay; format: functional, Natural killer cell
# [23] = Induction of activation of human CD56+ CD3- NK cells co-cultured with human K562 cells in 5:1 ratio and assessed as increase in MIP1beta secretion at 1 uM measured by ELISA assay; format: functional, Natural killer cell
# [24] = Induction of activation of human CD56+ CD3- NK cells co-cultured with human K562 cells in 1:1 ratio and assessed as increase in MIP1beta secretion at 10 uM measured by ELISA assay; format: functional, Natural killer cell
# [25] = Induction of activation of human CD56+ CD3- NK cells co-cultured with human K562 cells in 1:1 ratio and assessed as increase in MIP1beta secretion at 1 uM measured by ELISA assay; format: functional, Natural killer cell
# [26] = Induction of activation of human CD56+ CD3- NK cells co-cultured with human K562 cells in 1:1 ratio and assessed as increase in IFN-gamma secretion at 0.625 uM measured by ELISA assay; format: functional, Natural killer cell
# [27] = Induction of activation of human CD56+ CD3- NK cells co-cultured with human K562 cells in 1:1 ratio and assessed as increase in TNF-alpha secretion at 0.625 uM measured by ELISA assay; format: functional, Natural killer cell
# [28] = target: T1, E3 ubiquitin-protein ligase CBL-B (Homo sapiens, UniProt Q13191); experiment: Inhibition of N-terminal Avi-tagged human CBL-B (36 to 427 residues) incubated with 60 nM Src kinase for 1.5 hrs followed by incubation with fluorescently labeled UbcH5B-Ub for 1 hr and measured by TR-FRET assay; format: single protein
# [29] = target: T1, E3 ubiquitin-protein ligase CBL-B; experiment: Binding affinity towards N-terminal biotinylated Avi-tagged human CBL-B (36 to 427 residues) measured by surface plasmon resonance assay
# [30] = Induction of anti-CD3 antibodies-stimulated human CD4+ T cell activation in immunocompetent mouse assessed fold increase in CD25 expression at 90 mg/kg, po administered twice a day; format: functional; also: reference of the scale not given here
# [31] = Induction of anti-CD3 antibodies-stimulated human CD4+ T cell activation in immunocompetent mouse assessed fold increase in CD25 expression at 135 mg/kg, po administered twice a day; format: functional; also: reference of the scale not given here
# [32] = Induction of anti-CD3 antibodies-stimulated human CD4+ T cell activation in immunocompetent mouse assessed fold increase in CD25 expression at 180 mg/kg, po administered twice a day; format: functional; also: reference of the scale not given here
# [33] = Induction of anti-CD3 antibodies-stimulated human CD8+ T cell activation in immunocompetent mouse assessed fold increase in CD25 expression at 90 mg/kg, po administered twice a day; format: functional; also: reference of the scale not given here
# [34] = Induction of anti-CD3 antibodies-stimulated human CD8+ T cell activation in immunocompetent mouse assessed fold increase in CD25 expression at 135 mg/kg, po administered twice a day; format: functional; also: reference of the scale not given here
# [35] = Induction of anti-CD3 antibodies-stimulated human CD8+ T cell activation in immunocompetent mouse assessed fold increase in CD25 expression at 180 mg/kg, po administered twice a day; format: functional; also: reference of the scale not given here
# T1 sequence (Q13191 whole entry, the tested form may be a part): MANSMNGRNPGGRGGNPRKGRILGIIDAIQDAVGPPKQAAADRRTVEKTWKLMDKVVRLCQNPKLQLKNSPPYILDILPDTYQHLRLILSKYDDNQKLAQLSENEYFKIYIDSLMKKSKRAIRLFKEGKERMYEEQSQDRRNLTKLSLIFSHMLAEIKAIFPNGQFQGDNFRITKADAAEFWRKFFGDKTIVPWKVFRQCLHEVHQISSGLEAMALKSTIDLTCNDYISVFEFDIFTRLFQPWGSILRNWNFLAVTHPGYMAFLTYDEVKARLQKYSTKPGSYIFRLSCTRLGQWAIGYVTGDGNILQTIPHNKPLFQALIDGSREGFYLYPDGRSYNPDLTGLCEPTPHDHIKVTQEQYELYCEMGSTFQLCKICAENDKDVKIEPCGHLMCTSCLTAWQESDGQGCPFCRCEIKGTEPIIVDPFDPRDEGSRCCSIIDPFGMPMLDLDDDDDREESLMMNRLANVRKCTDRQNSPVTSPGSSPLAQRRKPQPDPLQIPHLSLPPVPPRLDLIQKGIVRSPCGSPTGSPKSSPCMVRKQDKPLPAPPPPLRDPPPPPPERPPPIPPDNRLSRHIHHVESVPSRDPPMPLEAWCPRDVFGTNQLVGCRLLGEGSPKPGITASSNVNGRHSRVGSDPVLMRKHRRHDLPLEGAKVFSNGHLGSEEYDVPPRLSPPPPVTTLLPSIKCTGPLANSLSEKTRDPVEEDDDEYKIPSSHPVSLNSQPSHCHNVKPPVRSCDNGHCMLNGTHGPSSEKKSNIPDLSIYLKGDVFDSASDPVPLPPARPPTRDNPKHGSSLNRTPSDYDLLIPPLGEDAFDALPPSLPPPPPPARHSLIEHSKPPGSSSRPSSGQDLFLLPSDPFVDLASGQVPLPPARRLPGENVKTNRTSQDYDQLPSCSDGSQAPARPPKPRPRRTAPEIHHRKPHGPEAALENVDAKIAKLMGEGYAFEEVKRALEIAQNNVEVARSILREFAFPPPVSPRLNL
Compound,fold change (FC) [1],fold change (FC) [2],fold change (FC) [3],fold change (FC) [4],fold change (FC) [5],fold change (FC) [6],fold change (FC) [7],fold change (FC) [8],fold change (FC) [9],fold change (FC) [10],fold change (FC) [11],fold change (FC) [12],fold change (FC) [13],fold change (FC) [14],fold change (FC) [15],fold change (FC) [16],fold change (FC) [17],fold change (FC) [18],fold change (FC) [26],fold change (FC) [27],also measured
C[C@H](Sc1nncn1C)c1cccc(NC(=O)c2cccc(C(F)(F)F)n2)c1,2.51,0.051,>=1.76,<=1.2,<=2,<=2,1.51,1.51,1.51,<=2,<=1.4,<=1.4,2.51,1,1.51,2.01,1.01,1.01,<=1,1.01,fold change (FC) [19]: 2.01; fold change (FC) [20]: 1.01; fold change (FC) [21]: 1.01; fold change (FC) [22]: 1.01; fold change (FC) [23]: <=1; fold change (FC) [24]: 1.01; fold change (FC) [25]: 1.01
C[C@@H](Sc1nncn1C)c1cccc(NC(=O)c2cccc(C(F)(F)F)n2)c1,1.01,0.051,1.01,1.201,>4,2.01,–,–,–,<=2,<=1.4,<=1.4,<=2.5,1.51,1,1.01,<=1,<=1,<=1,1.01,fold change (FC) [19]: <=1; fold change (FC) [20]: <=1; fold change (FC) [21]: 1.01; fold change (FC) [22]: 1.01; fold change (FC) [23]: <=1; fold change (FC) [24]: 1.01; fold change (FC) [25]: 1.01
Cc1cc(C(=O)Nc2cccc(C3(Cc4nncn4C)COC3)c2)nc(C2CC2)n1,>=7.5,>=0.201,1.51,1.201,>4,3.01,2.01,2.01,1.51,<=2,1.41,<=1.4,2.51,1,1,–,–,–,2.01,1.01,IC50 [28]: < 100 nM; Kd [29]: < 100 nM; fold change (FC) [30]: 1; fold change (FC) [31]: 1.51; fold change (FC) [32]: 1.51; fold change (FC) [33]: 1; fold change (FC) [34]: 1; fold change (FC) [35]: 1
Cn1cnnc1CC1(c2cccc(N3Cc4c(cc(CN5CCC6(CC6)C5)cc4C(F)(F)F)C3=O)c2)COC1,>=7.5,>=0.201,–,1.201,>4,>4,>4,2.01,2.01,>3,<=1.4,>1.61,2.51,1,1,–,–,–,2.01,2.01,IC50 [28]: < 100 nM; fold change (FC) [30]: 1; fold change (FC) [31]: 1.51; fold change (FC) [32]: 2.01; fold change (FC) [33]: 1; fold change (FC) [34]: 1; fold change (FC) [35]: 1
C[C@H](Cc1nncn1C)c1cccc(N2Cc3c(cccc3C(F)(F)F)C2=O)c1.Cl,2.51,0.051,>=1.76,1.201,2.01,<=2,<=1.5,<=1.5,<=1.5,<=2,<=1.4,1.41,2.51,1,–,>=5,1.01,1.01,1.01,1.01,IC50 [28]: < 100 nM; fold change (FC) [33]: <1; fold change (FC) [19]: <=1; fold change (FC) [20]: <=1; fold change (FC) [21]: <=1; fold change (FC) [22]: 1.01; fold change (FC) [23]: <=1; fold change (FC) [24]: 1.01; fold change (FC) [25]: <=1
